A short description of data set [1]: Inhibition of HIV1 3B gp41-mediated fusion of infected human H9 cells to uninfected human MT2 cells by fluorescence assay. The class given is cell-based. The following applies: Human immunodeficiency virus 1, 3B.
The nature of data set [2]: Cytotoxicity against human MT2 cells by XTT assay. The class given is cell-based.
In data set [3] the test system is Human immunodeficiency virus. Briefly: Antiviral activity against HIV 3B infected in MT2 cells assessed as inhibition of viral replication measuring p24 level by ELISA. The class given is functional, organism-based. As to conditions: Human immunodeficiency virus 1, 3B. (An ELISA detects its analyte on a solid surface through an enzyme-linked reagent.)
A short description of data set [4]: Inhibition of GP41 six-helix bundle formation in HIV 3B after 30 mins by FN-PAGE analysis. Also noted: species or system Human immunodeficiency virus 1.
Data set [5] can be described thus: Selectivity index, ratio of CC50 for human MT2 cells to EC50 for HIV 3B infected in MT2 cells. In kind it is toxicity, cell-based. The following applies: read-out: Ratio CC50/EC50.

The structures appear in SMILES notation. Some results are limits rather than exact numbers.

As usually defined, the EC50 is the concentration giving half of the maximal effect. For orientation: CC50 means the concentration that lowers cell viability or growth by half. `O=C(O)c1cccc(-c2ccc(/C=C3\NC(=O)N(CCc4ccccc4)C3=O)[nH]2)c1`: the EC50 in data set [1] is 35.9 µM; in data set [3], greater than 100 µM; in data set [4] it was 3.05 µM. Moreover, the cytotoxic concentration (CC50) in data set [2] worked out at 75.2 µM.
As for `O=C(O)c1cc(-c2ccc(/C=C3\NC(=O)N(CCc4ccccc4)C3=O)o2)ccc1Cl`, the results for the EC50 in data set [1], in data set [3] and in data set [4] were greater than 100 µM, 54.2 µM and 19 µM, respectively. In data set [2], the 50% cytotoxic concentration (CC50) is 78.5 µM. In addition, the selectivity ratio in data set [5] turned out to be 1.5.
Taken in the same sequence, the figures for `O=C(O)c1cc(-c2ccc(/C=C3\SC(=O)N(CCc4ccccc4)C3=O)o2)ccc1Cl` were 26.9 µM, 15.1 µM, 29.7 µM, 68.2 µM and 4.5.
For the molecule `O=C(O)c1cccc(-c2ccc(/C=C3\CC(=O)N(CCc4ccccc4)C3=O)[nH]2)c1`, the 50% effective concentration (EC50) in data set [1], in data set [3] and in data set [4] was greater than 100 µM throughout. In data set [2], this molecule had a cytotoxic concentration (CC50) of 127 µM.
In the case of `O=C(O)c1cc(-c2ccc(/C=C3\CC(=O)N(CCc4ccccc4)C3=O)[nH]2)ccc1Cl`, the EC50 in data set [1] was greater than 100 µM; in data set [3], greater than 100 µM; in data set [4] it was 5.5 µM. In data set [2], this molecule came in with a cytotoxic concentration (CC50) of 74.1 µM.
Consider `O=C(O)c1cc(-c2ccc(/C=C3\CC(=O)N(CCc4ccccc4)C3=O)o2)ccc1Cl`, for which the EC50 amounted to 43.6 µM in data set [1], 6.9 µM in data set [3] and 15.6 µM in data set [4]. In data set [2], this molecule gave a CC50 of 118 µM. Besides, in data set [5], the selectivity ratio was determined as 17.2.
For `O=C(O)c1cc(-c2ccc(/C=C3\OC(=S)N(CCc4ccccc4)C3=O)o2)ccc1Cl`, the EC50 in data set [1] came to 49.6 µM; in data set [3], 31 µM; in data set [4], 27.8 µM. Also, the CC50 in data set [2] was determined as 282 µM. Further, the selectivity ratio in data set [5] stood at 9.1.
Taken in the same sequence, the figures for `O=C(O)c1cc(-c2ccc(/C=c3\sc4nc(=O)c(-c5ccccc5)nn4c3=O)o2)ccc1Cl` were 45.9 µM, 16.8 µM, 12.9 µM, greater than 320 µM and greater than 19.1.
Taken in the same sequence, the figures for `O=C(O)c1cc(-c2ccc(/C=C3\SC(=S)N(CCc4ccccc4)C3=O)o2)ccc1Cl` were 0.75 µM, 0.05 µM, 1.27 µM, 20.3 µM and 406.
